The values that follow come from ChEMBL document CHEMBL3044766, “Synthesis, antitubercular and antifungal activities of heteroaryl-substituted oxiranes derived from BaylisHillman adducts” (2012).

The test system of assay [1] is Mycobacterium tuberculosis. Put plainly: Growth inhibition of Mycobacterium tuberculosis H37Rv at 1 ug/ml after 4 weeks by Lowenstein-Jensen method. In kind it is functional, organism-based.
For assay [2], the system named is Mycobacterium tuberculosis. Put plainly: Growth inhibition of Mycobacterium tuberculosis H37Rv at 100 ug/ml after 4 weeks by Lowenstein-Jensen method. It is filed as functional, organism-based.
In assay [3] the test system is Mycobacterium tuberculosis. Put plainly: Growth inhibition of Mycobacterium tuberculosis H37Rv at 10 ug/ml after 4 weeks by Lowenstein-Jensen method. It is filed as functional, organism-based.
Another assay relates to Candida albicans. Put plainly: Antifungal activity against Candida albicans at 100 ug/ml after 24 hr by disk diffusion method. In kind it is functional. As to conditions: read-out: DIZ.
The next assay relates to Aspergillus fumigatus. Briefly: Antifungal activity against Aspergillus fumigatus at 100 ug/ml after 24 hr by disc diffusion method. In kind it is functional. Particulars: read-out: DIZ. A general note: Agar diffusion results depend on both activity and mobility in agar.

Active and inactive are the calls of the source. The calls are words filed in the database; no cut-off is given here.

Consider `NC(=O)c1cnccn1`, for which the “growth inhibition (GI)” value in assay [1], in assay [2] and in assay [3] was “Active” each time.
`Clc1ccccc1C(c1ccccc1)(c1ccccc1)n1ccnc1` [CLOTRIMAZOLE]: the zone of inhibition at 100 µg/mL amounted to 20 mm in the assay on Candida albicans and 21 mm with Aspergillus fumigatus.
For `COC(=O)C1(C(O)c2ccco2)CO1` (stereo not given), the “growth inhibition (GI)” value in assay [1], in assay [2] and in assay [3] was “Active” in each case. Also, the zone of inhibition at 100 µg/mL came to 7 mm in the assay with Candida albicans and 8 mm in the assay on Aspergillus fumigatus.
Turning to `CCOC(=O)C1(C(O)c2cccs2)CO1` (stereo not given), the “growth inhibition (GI)” value in assay [1], in assay [2] and in assay [3] was “Active” throughout. The zone of inhibition at 100 µg/mL was determined as 9 mm in the assay on Candida albicans and 10 mm in the assay on Aspergillus fumigatus.
Regarding `CCOC(=O)C1(C(O)c2ccc[nH]2)CO1` (stereo not given), the “growth inhibition (GI)” value in assay [1], in assay [2] and in assay [3] was “Active” throughout. For the same compound, the zone of inhibition at 100 µg/mL in the assay with Candida albicans and with Aspergillus fumigatus was 10 mm each time.
Take `CCOC(=O)C1(C(O)c2ccco2)CO1` (stereo not given): the “growth inhibition (GI)” value in assay [1], in assay [2] and in assay [3] was “Active” throughout. The zone of inhibition at 100 µg/mL in the assay with Candida albicans came to 8 mm; in the assay on Aspergillus fumigatus, 9 mm.
As to `COC(=O)C1(C(O)c2ccc[nH]2)CO1` (stereo not given), the “growth inhibition (GI)” value in assay [1], in assay [2] and in assay [3] was “Active” in each case. For the same compound, the zone of inhibition at 100 µg/mL with Candida albicans came to 9 mm; with Aspergillus fumigatus, 12 mm.
Turning to `COC(=O)C1(C(O)c2cccs2)CO1` (stereo not given), the “growth inhibition (GI)” value in assay [1], in assay [2] and in assay [3] was “Active” in each case. Moreover, the zone of inhibition at 100 µg/mL in the assay on Candida albicans and in the assay with Aspergillus fumigatus was 12 mm throughout.
